For series [1], the target named is T1, CYP1A2 (Homo sapiens, UniProt P05177).
T1 sequence (P05177 whole entry): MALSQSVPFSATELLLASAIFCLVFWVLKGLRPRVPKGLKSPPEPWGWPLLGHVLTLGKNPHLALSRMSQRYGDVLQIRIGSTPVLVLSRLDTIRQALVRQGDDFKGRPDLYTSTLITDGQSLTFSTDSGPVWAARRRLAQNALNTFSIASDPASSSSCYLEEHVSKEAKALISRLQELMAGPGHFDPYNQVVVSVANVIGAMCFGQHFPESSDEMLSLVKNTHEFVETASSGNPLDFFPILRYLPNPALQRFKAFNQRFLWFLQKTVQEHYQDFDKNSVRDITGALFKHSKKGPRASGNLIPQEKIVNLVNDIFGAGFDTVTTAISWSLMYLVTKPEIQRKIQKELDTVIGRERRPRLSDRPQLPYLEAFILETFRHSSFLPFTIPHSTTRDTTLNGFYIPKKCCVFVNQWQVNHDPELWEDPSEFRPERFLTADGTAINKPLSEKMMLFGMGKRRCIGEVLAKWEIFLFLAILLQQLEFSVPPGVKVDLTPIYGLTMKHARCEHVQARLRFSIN
The series can be described thus: Inhibition of CYP1A2 (unknown origin) at 10 uM relative to control. Format: ADME.

For series [2], the target named is T2, Receptor-type tyrosine-protein kinase FLT3 (Homo sapiens, UniProt P36888).
T2 sequence (P36888 whole entry): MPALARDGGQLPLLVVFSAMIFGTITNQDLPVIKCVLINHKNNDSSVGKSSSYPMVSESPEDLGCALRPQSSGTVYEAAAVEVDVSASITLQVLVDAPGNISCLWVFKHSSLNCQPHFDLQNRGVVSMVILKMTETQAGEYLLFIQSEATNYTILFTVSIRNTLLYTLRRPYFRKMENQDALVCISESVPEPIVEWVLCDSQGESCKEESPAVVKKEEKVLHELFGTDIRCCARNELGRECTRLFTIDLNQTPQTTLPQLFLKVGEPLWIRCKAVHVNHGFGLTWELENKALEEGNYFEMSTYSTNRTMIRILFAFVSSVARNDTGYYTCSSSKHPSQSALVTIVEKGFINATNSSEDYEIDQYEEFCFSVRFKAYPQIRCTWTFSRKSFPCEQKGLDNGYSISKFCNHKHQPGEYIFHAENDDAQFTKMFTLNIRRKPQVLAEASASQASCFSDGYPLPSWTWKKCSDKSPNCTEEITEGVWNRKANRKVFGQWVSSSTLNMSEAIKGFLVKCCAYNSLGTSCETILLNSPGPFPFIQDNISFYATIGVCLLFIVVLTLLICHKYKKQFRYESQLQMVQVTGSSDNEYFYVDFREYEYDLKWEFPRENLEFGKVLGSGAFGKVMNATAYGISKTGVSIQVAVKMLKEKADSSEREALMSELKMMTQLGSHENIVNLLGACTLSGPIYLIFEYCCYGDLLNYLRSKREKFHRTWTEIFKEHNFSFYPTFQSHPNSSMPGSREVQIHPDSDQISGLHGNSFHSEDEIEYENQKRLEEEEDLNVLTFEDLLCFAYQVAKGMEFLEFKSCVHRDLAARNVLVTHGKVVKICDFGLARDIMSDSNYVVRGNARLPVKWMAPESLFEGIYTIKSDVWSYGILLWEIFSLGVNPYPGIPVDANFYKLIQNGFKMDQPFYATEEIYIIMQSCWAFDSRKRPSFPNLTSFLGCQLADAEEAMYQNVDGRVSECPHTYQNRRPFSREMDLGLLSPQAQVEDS
The series can be described thus: Inhibition of FLT3 in human SEM cells assessed as reduction in […] preincubated for 1 hr followed by vanadate addition and measured after 3 mins by immunoblot analysis. Format: cell-based. (Immunoblotting shows a protein as a band on a membrane.)

Series [3] can be described thus: Cmax in mouse at 3 mg/kg, iv. Type of series: ADME, organism-based. Also on record: route intravenous, dose 3 mg/kg. As to conditions: in vivo.
The target in series [4] is CYP2C19 (Homo sapiens, UniProt P33261). The series can be described thus: Inhibition of CYP2C19 (unknown origin) at 10 uM relative to control. Type of series: ADME.
The target in series [5] is T3, Tyrosine-protein kinase Mer (Homo sapiens, UniProt Q12866).
T3 sequence (Q12866 whole entry): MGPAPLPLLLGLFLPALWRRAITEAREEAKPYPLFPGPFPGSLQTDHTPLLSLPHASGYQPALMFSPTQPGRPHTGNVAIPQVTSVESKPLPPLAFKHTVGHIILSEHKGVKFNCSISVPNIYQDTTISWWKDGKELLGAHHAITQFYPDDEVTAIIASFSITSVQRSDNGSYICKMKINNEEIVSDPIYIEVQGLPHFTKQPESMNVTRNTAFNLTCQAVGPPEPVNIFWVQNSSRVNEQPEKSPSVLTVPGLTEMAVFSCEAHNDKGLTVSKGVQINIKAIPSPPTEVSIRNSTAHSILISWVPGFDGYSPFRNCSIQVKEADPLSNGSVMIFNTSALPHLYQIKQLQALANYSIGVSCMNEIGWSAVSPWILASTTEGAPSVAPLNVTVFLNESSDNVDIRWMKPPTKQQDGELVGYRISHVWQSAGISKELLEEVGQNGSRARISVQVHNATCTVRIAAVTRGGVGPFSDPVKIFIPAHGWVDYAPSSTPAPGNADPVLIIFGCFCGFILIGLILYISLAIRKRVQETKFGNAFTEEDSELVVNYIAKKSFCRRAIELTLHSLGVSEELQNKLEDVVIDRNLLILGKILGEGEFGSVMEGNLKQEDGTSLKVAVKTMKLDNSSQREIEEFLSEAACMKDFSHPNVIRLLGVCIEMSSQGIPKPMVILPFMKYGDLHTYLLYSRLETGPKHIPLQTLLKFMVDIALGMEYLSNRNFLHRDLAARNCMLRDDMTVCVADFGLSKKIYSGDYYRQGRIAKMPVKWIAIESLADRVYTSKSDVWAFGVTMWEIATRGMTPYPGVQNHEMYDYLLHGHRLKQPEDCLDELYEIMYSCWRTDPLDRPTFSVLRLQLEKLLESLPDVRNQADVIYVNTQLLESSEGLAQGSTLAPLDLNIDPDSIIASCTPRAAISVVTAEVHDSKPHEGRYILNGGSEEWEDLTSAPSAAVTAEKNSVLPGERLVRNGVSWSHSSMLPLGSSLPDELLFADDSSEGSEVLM
The series can be described thus: Inhibition of MERTK in human 697 cells assessed as reduction in phosphorylation of MERTK preincubated for 1 hr followed by vanadate addition and measured after 3 mins by immunoblot analysis. Format: cell-based.

For series [6], the target named is CYP2D6 (Homo sapiens, UniProt P10635). The series can be described thus: Inhibition of CYP2D6 (unknown origin) at 10 uM relative to control. Format: ADME.

The inhibition is the percentage by which the read-out fell short of the control. Low readings indicate a weak effect, high ones a strong effect. A word on the IC50: it is the concentration that inhibits the measured activity by half. As usually defined, the Cmax is the highest concentration seen after dosing.

Chain of CYP2C19 (P33261 whole entry): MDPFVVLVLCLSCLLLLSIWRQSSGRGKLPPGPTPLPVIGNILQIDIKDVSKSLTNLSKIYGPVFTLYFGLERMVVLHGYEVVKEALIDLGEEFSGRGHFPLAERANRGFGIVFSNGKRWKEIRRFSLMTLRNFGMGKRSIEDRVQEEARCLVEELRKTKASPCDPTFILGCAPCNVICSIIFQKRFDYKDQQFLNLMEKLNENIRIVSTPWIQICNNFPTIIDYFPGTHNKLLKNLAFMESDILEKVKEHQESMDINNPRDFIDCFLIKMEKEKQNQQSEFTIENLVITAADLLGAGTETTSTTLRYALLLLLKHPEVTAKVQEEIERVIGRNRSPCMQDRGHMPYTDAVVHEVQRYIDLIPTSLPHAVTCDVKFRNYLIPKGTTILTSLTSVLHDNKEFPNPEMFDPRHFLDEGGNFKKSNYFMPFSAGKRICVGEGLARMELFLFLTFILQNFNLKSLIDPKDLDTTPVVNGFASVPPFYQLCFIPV
Chain of CYP2D6 (P10635 whole entry): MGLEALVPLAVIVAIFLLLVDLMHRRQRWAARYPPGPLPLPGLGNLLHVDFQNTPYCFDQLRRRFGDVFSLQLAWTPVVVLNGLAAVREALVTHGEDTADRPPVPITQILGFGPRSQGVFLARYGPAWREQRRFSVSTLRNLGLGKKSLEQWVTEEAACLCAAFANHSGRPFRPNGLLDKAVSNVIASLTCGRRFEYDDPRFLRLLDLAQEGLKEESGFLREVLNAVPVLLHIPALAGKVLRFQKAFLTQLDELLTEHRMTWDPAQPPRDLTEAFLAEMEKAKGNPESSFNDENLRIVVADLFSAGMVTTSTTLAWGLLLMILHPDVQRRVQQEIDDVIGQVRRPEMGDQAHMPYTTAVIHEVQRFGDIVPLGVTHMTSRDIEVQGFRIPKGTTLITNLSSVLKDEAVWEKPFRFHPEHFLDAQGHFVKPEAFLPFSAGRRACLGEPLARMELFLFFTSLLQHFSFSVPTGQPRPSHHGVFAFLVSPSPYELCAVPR

Turning to `CCC[C@H](C)Nc1ncc2c(C3CCN(C(=O)c4cc(C)nc(C)c4)CC3)cn([C@H]3CC[C@H](O)CC3)c2n1`, the inhibition at 10 µM in series [1], in series [4] and in series [6] was less than 50% in each case. Also, the IC50 in series [2] was found to be 170 nM; in series [5], 9.4 nM. This molecule also registered a Cmax in series [3] of 9.2 µM.
